This is an account of results in US12441736B2, “KIF18A inhibitors” (AMGEN INC., priority 2018, dated 2025).

Each structure is given as a SMILES string.

T1 sequence (Q8NI77 1-467): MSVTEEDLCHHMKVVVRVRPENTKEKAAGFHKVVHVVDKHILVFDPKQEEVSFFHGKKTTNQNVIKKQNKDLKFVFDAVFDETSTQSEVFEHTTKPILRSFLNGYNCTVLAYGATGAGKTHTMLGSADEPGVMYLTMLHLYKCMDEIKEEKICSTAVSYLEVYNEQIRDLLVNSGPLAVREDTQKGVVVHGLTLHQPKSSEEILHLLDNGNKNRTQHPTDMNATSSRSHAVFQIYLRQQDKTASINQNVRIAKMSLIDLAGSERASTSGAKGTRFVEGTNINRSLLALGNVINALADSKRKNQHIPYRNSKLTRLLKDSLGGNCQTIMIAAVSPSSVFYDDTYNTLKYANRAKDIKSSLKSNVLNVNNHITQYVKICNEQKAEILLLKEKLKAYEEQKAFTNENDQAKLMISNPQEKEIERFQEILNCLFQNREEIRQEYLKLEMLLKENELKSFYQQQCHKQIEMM
T1 sequence (P02550 whole entry partner): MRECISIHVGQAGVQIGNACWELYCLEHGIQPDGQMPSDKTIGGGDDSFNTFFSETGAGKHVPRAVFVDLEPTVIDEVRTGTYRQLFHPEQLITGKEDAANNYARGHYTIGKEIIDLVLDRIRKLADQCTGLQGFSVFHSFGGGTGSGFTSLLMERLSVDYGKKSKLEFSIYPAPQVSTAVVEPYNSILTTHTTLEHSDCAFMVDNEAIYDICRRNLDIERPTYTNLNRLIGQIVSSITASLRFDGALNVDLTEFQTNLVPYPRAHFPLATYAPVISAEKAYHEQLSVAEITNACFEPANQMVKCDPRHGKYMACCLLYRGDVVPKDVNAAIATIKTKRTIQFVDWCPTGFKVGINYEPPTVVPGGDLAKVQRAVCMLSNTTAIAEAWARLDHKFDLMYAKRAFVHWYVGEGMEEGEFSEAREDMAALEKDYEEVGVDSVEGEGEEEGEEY
T1 sequence (P02554 whole entry partner): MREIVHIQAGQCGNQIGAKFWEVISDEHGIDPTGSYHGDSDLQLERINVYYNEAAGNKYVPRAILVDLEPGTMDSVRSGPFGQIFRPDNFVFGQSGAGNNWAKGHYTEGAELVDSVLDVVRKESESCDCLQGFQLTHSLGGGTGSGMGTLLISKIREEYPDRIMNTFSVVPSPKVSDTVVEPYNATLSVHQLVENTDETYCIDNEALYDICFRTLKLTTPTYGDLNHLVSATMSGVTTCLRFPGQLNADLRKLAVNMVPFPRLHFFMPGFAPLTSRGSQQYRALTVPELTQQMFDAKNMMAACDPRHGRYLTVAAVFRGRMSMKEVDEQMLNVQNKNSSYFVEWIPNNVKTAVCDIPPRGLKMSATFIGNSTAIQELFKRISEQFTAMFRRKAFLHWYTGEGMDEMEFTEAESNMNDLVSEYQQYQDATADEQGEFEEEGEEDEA

This test concerns the target T1, Recombinant human KIF18A (1-467 His-tagged) protein (Homo sapiens, UniProt Q8NI77).
T1 construct: Recombinant human KIF18A (1-467 His-tagged) protein; His; made in house
Briefly: KIF18A Enzyme Assay: microtubule-stimulated ATPase activity (ADP-Glo). The format is biochemical. To be noted: 30 nM KIF18A, 30 μg/mL pig microtubules, 75 μM ATP, ADP-Glo luminescence. The text has this: KIF18A Enzyme Assay: Microtubule-stimulated ATPase activity assay is used to measure KIF18A enzyme activity after treatment with compound. Compounds were 2-fold serially diluted in DMSO (Sigma Inc) over 22-point concentration range. Recombinant human KIF18A (1-467 His-tagged) protein was expressed using a baculovirus system and purified by affinity chromatography by Amgen Inc. Concentrations of KIF18A protein, microtubules (MT), and ATP in the reaction were optimized for standardized homogenous enzyme assay using ADP-Glo™ Kinase/ATPase Assay Kit (Promega Inc). The assay measures ADP formed from the ATPase reaction. Prepare reaction buffer [(15 mM Tris, pH 7.5 (Teknova Inc), 10 mM MgCl2 (IT Baker Inc), 0.01% Pluronic F-68 (Life Technologies Inc), 1 μM Taxol (Cytoskeleton Inc), and 30 μg/mL pig microtubules (Cytoskeleton Inc)]. Add compound and KIF18A protein (30 nM) to prepared reaction buffer and incubated for 15 minutes at room temperature, next add ATP (at Kin, 75 μM) to the reaction mixture and incubated for an additional 15 minutes at room temperature. Mix 5 μl of ADP-Glo™ Reagent and 2.5 μl of the reaction mixture and incubate for 40 minutes at room temperature. Add 10 μl ADP-Glo™ Detection Reagent and incubate for 40 minutes at room temperature. Read luminescence using EnVision microplate reader with ultra-luminescence module (Perkin Elmer Inc). Concentration-response curve-fitting and IC50 determination was performed using Genedata Screener Software (Standard 15.0.1, Genedata Inc) with a four-parameter logistic regression fit model.
Table A provides data for compounds exemplified in the present application and priority document thereof, as representative compounds of the present invention, as follows: chemical name (as named by either ACD software or ChemDraw (Professional 15.0)) and biological data (IC50 in μM). Ex. # refers to Example No.
(In general: In ADP-Glo the light output rises with the ADP produced.)
Turning to `C[C@H]1CN(c2cccc(NC(=O)c3ncc(NC(C)(C)CO)nc3N3CCC4(CC3)CC4)n2)C[C@H](C)O1` (racemic) [Example 111, N-(6-((2S,6S)-2,6-dimethylmorpholino)pyridin-2-yl)-5-((1-hydroxy-2-methylpropan-2-yl)amino)-3-(6-azaspiro[2.5]octan-6-yl)pyrazine-2-carboxamide], the IC50 came out at 110 nM.
Consider `CC(C)(CO)Nc1cnc(C(=O)Nc2cccc(N3C[C@@H]4C[C@H]3CO4)n2)c(N2CCC3(CC2)CC3)n1` (racemic) [Example 112, N-(6-((1S,4S)-2-oxa-5-azabicyclo[2.2.1]heptan-5-yl)pyridin-2-yl)-5-((1-hydroxy-2-methylpropan-2-yl)amino)-3-(6-azaspiro[2.5]octan-6-yl)pyrazine-2-carboxamide], for which the IC50 is 182 nM.
The value for `CC(C)(C)NS(=O)(=O)c1cccc(NC(=O)c2ccc(C(C)(O)C(F)(F)F)nc2N2CCC3(CC2)CC3)n1` (racemic) [Example 143, N-(6-(N-(tert-butyl)sulfamoyl)pyridin-2-yl)-2-(6-azaspiro[2.5]octan-6-yl)-6-(1,1,1-trifluoro-2-hydroxypropan-2-yl)nicotinamide] was 90.4 nM; that for `C[C@H]1CN(c2cccc(NC(=O)c3ccc(NC(C)(C)CO)nc3N3CCC4(CC3)CC4)n2)C[C@H](C)O1` (racemic) [Example 150, N-(6-((2S,6S)-2,6-dimethylmorpholino)pyridin-2-yl)-6-((1-hydroxy-2-methylpropan-2-yl)amino)-2-(6-azaspiro[2.5]octan-6-yl)nicotinamide] was 99.7 nM.
The result for `CC(C)(CO)Nc1ccc(C(=O)Nc2cccc(N3C[C@@H]4C[C@H]3CO4)n2)c(N2CCC3(CC2)CC3)n1` (racemic) [Example 151, N-(6-((1S,4S)-2-oxa-5-azabicyclo[2.2.1]heptan-5-yl)pyridin-2-yl)-6-((1-hydroxy-2-methylpropan-2-yl)amino)-2-(6-azaspiro[2.5]octan-6-yl)nicotinamide] reads 90.5 nM; that for `CC(C)(C)NS(=O)(=O)c1cccc(NC(=O)c2ccc(C3(C(F)(F)F)COC(C)(C)O3)nc2N2CCC3(CC2)CC3)n1` (racemic) [Example 171, N-(6-(N-(tert-butyl)sulfamoyl)pyridin-2-yl)-6-(2,2-dimethyl-4-(trifluoromethyl)-1,3-dioxolan-4-yl)-2-(6-azaspiro[2.5]octan-6-yl)nicotinamide], 286 nM.
Take `CC(C)(C)NS(=O)(=O)c1cccc(NC(=O)c2ccc(C(O)(CO)C(F)(F)F)nc2N2CCC3(CC2)CC3)n1` (racemic) [Example 172, N-(6-(N-(tert-butyl)sulfamoyl)pyridin-2-yl)-2-(6-azaspiro[2.5]octan-6-yl)-6-(1,1,1-trifluoro-2,3-dihydroxypropan-2-yl)nicotinamide]: the IC50 turned out to be 120 nM.
`C[C@@H]1CO[C@@H](C)CN1c1cccc(NC(=O)c2ccc(NC(C)(C)CO)nc2N2CCC3(CC2)CC3)n1` (racemic) [Example 187, N-(6-((2S,5R)-2,5-dimethylmorpholino)pyridin-2-yl)-6-((1-hydroxy-2-methylpropan-2-yl)amino)-2-(6-azaspiro[2.5]octan-6-yl)nicotinamide]: the IC50 worked out at 252 nM.
The result for `C[C@H]1CN(c2cccc(NC(=O)c3ccc(NC(C)(C)CO)nc3N3CCC4(CC3)CC4)n2)[C@@H](C)CO1` (racemic) [Example 199, N-(6-((2S,5S)-2,5-dimethylmorpholino)pyridin-2-yl)-6-((1-hydroxy-2-methylpropan-2-yl)amino)-2-(6-azaspiro[2.5]octan-6-yl)nicotinamide] reads 243 nM.
For `CC(O)(c1ccc(C(=O)Nc2cccc(N3CCOCC3)n2)c(N2CCC3(CC2)CC3)n1)C(F)(F)F` (single isomer, unassigned) [Example 141], the IC50 was 88 nM.
The value for `CC(C)(C)NS(=O)(=O)c1cccc(NC(=O)c2ccc([C@@](C)(O)C(F)(F)F)nc2N2CCC3(CC2)CC3)n1` (single isomer, unassigned) [Example 153] was 53.4 nM; that for `CC(C)(C)NS(=O)(=O)c1cccc(NC(=O)c2ccc([C@](C)(O)C(F)(F)F)nc2N2CCC3(CC2)CC3)n1` (single isomer, unassigned) [Example 154] was 105 nM; that for `CC(C)(C)NS(=O)(=O)c1cccc(NC(=O)c2ccc([C@@](O)(CO)C(F)(F)F)nc2N2CCC3(CC2)CC3)n1` (single isomer, unassigned) [Example 175] was 116 nM.
Take `CC(C)(C)NS(=O)(=O)c1cccc(NC(=O)c2ccc([C@](O)(CO)C(F)(F)F)nc2N2CCC3(CC2)CC3)n1` (single isomer, unassigned) [Example 176]: the IC50 is 101 nM.
For `CC(C)(C)NS(=O)(=O)c1cccc(NC(=O)c2ccc([C@](C)(O)CO)nc2N2CCC3(CC2)CC3)n1` (single isomer, unassigned) [Example 177], the IC50 stood at 87.3 nM.
`CC(C)(C)NS(=O)(=O)c1cccc(NC(=O)c2ccc([C@@](C)(O)CO)nc2N2CCC3(CC2)CC3)n1` (single isomer, unassigned) [Example 178]: the IC50 stood at 109 nM.
The value for `O=C(Nc1cccc(N2CCOCC2)n1)c1ccc([C@@](O)(CO)C(F)(F)F)nc1N1CCC2(CC1)CC2` (single isomer, unassigned) [Example 201] was 76.9 nM; that for `O=C(Nc1cccc(N2CCOCC2)n1)c1ccc([C@](O)(CO)C(F)(F)F)nc1N1CCC2(CC1)CC2` (single isomer, unassigned) [Example 202] was 68.4 nM; that for `C[C@@H]1CN(c2cccc(NC(=O)c3ccc([C@@](O)(CO)C(F)(F)F)nc3N3CCC4(CC3)CC4)n2)CCO1` (single isomer, unassigned) [Example 206] was 116 nM.
The value for `C[C@@H]1CN(c2cccc(NC(=O)c3ccc([C@](O)(CO)C(F)(F)F)nc3N3CCC4(CC3)CC4)n2)CCO1` (single isomer, unassigned) [Example 207] was 105 nM; that for `CC1(C)COC(=O)N1c1ccc(C(=O)Nc2cccc(N3CC[C@H](O)C3(C)C)n2)c(N2CCC3(CC2)CC3)n1` (stereo in doubt) [Example 220, 6-(4,4-dimethyl-2-oxooxazolidin-3-yl)-N-(6-(3-hydroxy-2,2-dimethylpyrrolidin-l-yl)pyridin-2-yl)-2-(6-azaspiro[2.5]octan-6-yl)nicotinamide] was 2250 nM.
The result for `CC(C)(CO)Nc1cnc(C(=O)Nc2cccc(S(=O)(=O)N3CCCCC3)n2)c(N2CCC3(CC2)CC3)n1` [Example 100, 5-((1-hydroxy-2-methylpropan-2-yl)amino)-N-(6-(piperidin-1-ylsulfonyl)pyridin-2-yl)-3-(6-azaspiro[2.5]octan-6-yl)pyrazine-2-carboxamide] reads 70.5 nM; that for `O=C(Nc1cccc(S(=O)(=O)N2CCCCC2)n1)c1ncc(NC2(CO)CC2)nc1N1CCC2(CC1)CC2` [Example 101, 3-(6-azaspiro[2.5]oct-6-yl)-5-((1-(hydroxymethyl)cyclopropyl)amino)-N-(6-(1-piperidinylsulfonyl)-2-pyridinyl)-2-pyrazinecarboxamide], 106 nM; that for `CC(C)(C)NS(=O)(=O)c1cccc(NC(=O)c2ncc(NC(C)(C)CO)nc2N2CCC3(CC2)CC3)n1` [Example 102, N-(6-(N-(tert-butyl)sulfamoyl)pyridin-2-yl)-5-((1-hydroxy-2-methylpropan-2-yl)amino)-3-(6-azaspiro[2.5]octan-6-yl)pyrazine-2-carboxamide], 75.3 nM.

The term IC50 denotes the point on the concentration scale where inhibition reaches its midpoint.
